Results as given in PubChem BioAssay AID179 (DTP/NCI, 2004).
“And” between values parts separate entries of the source, which are not always exact repeats. Identical values can stand only once. The source made the active and inactive calls.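 How the source made its calls: active means compounds giving half or more protection of infected cells from virus-caused growth loss, again on retest; inactive means the rest.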

Tested on: CEM cells HIV-1 protection, formazan growth assay
Test: NCI AIDS Antiviral Assay
Conditions: for IC50: measured here: growth of uninfected CEM cells
Summary of the method: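 Human CEM cells, uninfected and HIV-1-infected, exposed to five drug concentrations; growth measured by soluble formazan assay and scored as percent protection from infection, with protecting compounds retested.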

## C=C[C@@]1(O)CC[C@@H](C(C)(C)C)C[C@H]1CC(=C)Br
  outcome: inactive

## CCN(CC)c1ccc(N=Nc2ccc(-c3nc4ccc[n+](C)c4s3)cc2)cc1
  EC50: > 7.08 µM
  IC50: 4.79 µM

## N#C/C(=C\c1cc(O)c(O)c(O)c1)C(N)=O
  EC50: > 200 µM
  IC50: 91.2 µM

## CCCc1cc(=O)oc2c3c(cc(OC(C)CC)c12)O[C@H](C)[C@@H](C)C3=O (stereo not given in full)
  EC50: > 60.3 µM
  IC50: 14.1 µM

## CC(=O)OC1C2C(=C(C)C(=O)O[C@@H]2c2ccoc2)[C@@]2(C)C3CCC(C)(C(=O)O3)C12 (stereo not given in full)
  EC50: 162 µM
  IC50: > 200 µM

## COc1cc(Cc2nnc(Nc3ccccc3)[nH]c2=O)cc(OC)c1OC
  EC50: > 257 µM
  IC50: > 257 µM

## COc1cc(C=O)c(-c2cc3c(cc2C=O)OCO3)c(OC)c1OC
  EC50: > 145 µM
  IC50: 51.3 µM

## N#CC(C(=O)C(=O)Nc1ccc(Cl)cc1)c1ccccc1 (stereo not given)
  outcome: inactive

## CCOC(=O)c1ccc(NC(=O)Nc2ccc(Cl)cn2)cc1
  EC50: > 200 µM
  IC50: > 200 µM

## CN(C=O)/C=C/c1cc(O)ccc1O
  outcome: inactive

## O=C1/C(=C/c2ccc(O)cc2)Oc2ccccc21
  EC50: > 200 µM
  IC50: 151 µM

## Nc1ncnc2c(C3OC(CO)C(O)C3O)c[nH]c12 (stereo not given)
  EC50: > 832 µM
  IC50: 0.263 µM

## Nc1nc(-c2ccco2)cc(-c2ccc(CO)o2)n1
  EC50: > 195 µM
  IC50: 107 µM

## OCC(S)CS (stereo not given)
  EC50: > 151 µM
  IC50: 72.4 µM

## O=C1c2c(n(Cc3ccccc3)c(=O)n2Cc2ccccc2)C(=O)N1Cc1ccccc1
  EC50: > 17 µM
  IC50: > 17 µM

## CCCOC(C)OCCC#CCC(C)OC(=O)CC(Cl)(Cl)Cl (stereo not given)
  EC50: > 200 µM
  IC50: > 200 µM

## COc1ccc2oc(C(=O)O)c3c2c1CCC3CCC(=O)O (stereo not given)
  outcome: inactive

## COc1ccc(N2C(=O)C3c4[nH]c5c(C)cccc5c4C4CCC(C(C)C)CC4C3C2=O)cc1 (stereo not given)
  EC50: > 200 µM
  IC50: 23.4 µM

## CC1OC(=O)N2CCC=CC12 (stereo not given)
  outcome: inactive

## O=S(=O)(/C=C/c1ccc(F)cc1)Cc1ccc(CS(=O)(=O)/C=C/c2ccc(F)cc2)cc1
  EC50: > 27.5 µM
  IC50: > 27.5 µM

## COc1ccc(C2Oc3cc(OC)ccc3C(=O)C2c2ccccc2)cc1 (stereo not given)
  EC50: > 200 µM
  IC50: 31.6 µM

## CC(C)(c1ccc(Oc2ccc(C#N)c(C#N)c2)cc1)c1ccc(Oc2ccc(C#N)c(C#N)c2)cc1
  EC50: > 10.7 µM
  IC50: > 10.7 µM

## c1ccc2c(c1)Cc1cn3c(nc1-2)nc1ccccc13
  EC50: > 200 µM
  IC50: 129 µM

## S=C(N/N=C/c1ccccc1Cl)Nc1ccccc1
  EC50: > 200 µM
  IC50: 135 µM

## CC(=O)NNC=N/C(C#N)=C(\N)C#N
  EC50: > 200 µM
  IC50: > 200 µM

## NCS(=O)(=O)O
  EC50: > 200 µM
  IC50: 18.6 µM

## N#CC(/C(CCC(=O)Nc1ccc(Cl)cc1)=N/NC(=O)c1cc2ccccc2cc1O)c1ccccc1 (stereo not given)
  EC50: > 51.3 µM
  IC50: 12.6 µM

## O=S1Nc2c(Cl)cc(Cl)c(Cl)c2S1 (stereo not given)
  EC50: > 129 µM
  IC50: > 129 µM

## COC1(c2ccc(C)cc2C)OC(=O)c2c(C)cccc21 (stereo not given)
  outcome: inactive

## C=CCCCCCCCCC(=O)NC(C)COC (stereo not given)
  EC50: > 200 µM
  IC50: 107 µM

## COC(=O)c1nn2ccc3ccccc3c2c1C(=O)OC
  EC50: > 200 µM
  IC50: 93.3 µM

## Cc1ccsc1C(=S)Nc1ccc(Cl)c(/C=N/OC(C)C)c1
  EC50: 0.0575 µM
  IC50: 10.7 µM

## Cn1c2ccc3cc2c(=S)c2cc(ccc21)OCCOCCOCCOCCOCCOCCO3
  EC50: > 200 µM
  IC50: 186 µM

## COc1cc2c(cc1OC)C13CCN4CC5=CCOC(CC(=O)O)C(C5CC41)C3N2 (stereo not given)
  EC50: 25.7 µM
  IC50: 151 µM

## Cc1ccc2c(=O)c3ccccc3sc2c1
  EC50: > 200 µM
  IC50: > 200 µM

## CC(=O)C1C(=O)C(=O)N(c2ccc([N+](=O)[O-])cc2[N+](=O)[O-])C1=O (stereo not given)
  EC50: > 200 µM
  IC50: > 200 µM

## C=CC1ON(C)CCc2cc(OC)c(OC)cc21 (stereo not given)
  EC50: 162 µM
  IC50: > 200 µM

## O=C1NC(=O)/C(=C/c2ccc(S(=O)(=O)N/N=C\C(O)C(O)C(O)C(O)CO)cc2)N1 (stereo not given)
  EC50: > 200 µM
  IC50: 126 µM and > 200 µM

## O=C1C2C(C(=O)N1c1ccccc1)C1(c3ccccc3)SC2(c2ccccc2)c2c(-c3ccccc3)sc(-c3ccccc3)c21 (stereo not given)
  outcome: inactive

## O=S(=O)(c1ccccc1)C1(CCC2OCCO2)C=CC2(CC1)OCCO2 (stereo not given)
  EC50: > 200 µM
  IC50: > 200 µM

## [N-]=[N+]=Nc1ccccc1C(=O)N1C(=O)c2ccccc2C(=O)N(C(=O)c2ccccc2N=[N+]=[N-])c2ccccc21
  EC50: > 200 µM
  IC50: 72.4 µM

## CN(/N=C/c1cccc2cccnc12)c1ccc([N+](=O)[O-])cc1
  outcome: inactive

## COc1c(C)c(C/C=C(\C)CC/C=C(\C)CCC=C(C)C)c(OC)c(OC)c1OC
  EC50: > 200 µM
  IC50: > 200 µM

## Cc1n[nH]c(=O)n1-c1cccnc1
  EC50: > 200 µM
  IC50: > 200 µM

## O=c1[nH]cnc2cccc(Cl)c12
  EC50: > 200 µM
  IC50: > 200 µM

## O=C(/C=C/c1ccc(O)c(O)c1)OCCCOC(=O)/C=C/c1ccc(O)c(O)c1
  EC50: > 100 µM
  IC50: 13.8 µM

## O=C(O)c1cccc2cccc(-c3c4ccc(=O)c(O)c-4oc4c(O)c(O)ccc34)c12
  EC50: 29.5 µM
  IC50: 33.1 µM

## O=C(CSc1nnc(-c2ccc(N=Cc3ccc(Cl)cc3)cc2)o1)Nc1ccccc1
  EC50: > 112 µM
  IC50: 42.7 µM

## CCOC(=O)/C(=C\c1ccc(F)cc1)C(C)=O
  EC50: > 398 µM
  IC50: 79.4 µM

## COc1cc2c3c(cccc3c1)C(=O)N(CCN(C)C)C2=O
  EC50: > 200 µM
  IC50: 1.26 µM

## C[N+](C)(C)C=Nc1cccc2c1CCCC2
  EC50: > 200 µM

## CC(C)C(O)S(=O)(=O)O (stereo not given)
  EC50: > 200 µM
  IC50: > 200 µM

## O=c1c(O)c(O)c(=O)c(=O)c1=O
  outcome: inactive

## O=C1CCC2(CC1CCSc1ccccc1)OCCO2 (stereo not given)
  EC50: > 200 µM
  IC50: 126 µM

## O=P(CP(=O)(c1ccccc1)c1ccccc1)(c1ccccc1)c1ccccc1.[CH3][Sn]([CH3])([Cl])[Cl]
  outcome: inactive

## COc1ccccc1C1OC(c2ccccc2OC)C2CCN(C)C2(C)O1 (stereo not given)
  EC50: > 200 µM
  IC50: > 200 µM

## CCOC(=O)c1nc2cc(C(F)(F)F)ccc2nc1Oc1ccc(C(=O)OC)cc1
  EC50: > 200 µM
  IC50: 95.5 µM

## c1ccc(-c2nnc(CCCCCCCCc3nnc(-c4ccccc4)o3)o2)cc1
  EC50: > 200 µM
  IC50: 158 µM

## O=[N+]([O-])c1cc(Cl)cc2cc(Br)cnc12
  EC50: > 200 µM
  IC50: > 200 µM

## O=C(O)C(=O)/C=C\c1ccc(Cl)cc1
  EC50: > 617 µM
  IC50: 191 µM

## CC1=CCC(Br)C(C)(C)C12CCC(C)(Cl)C(Br)C2 (stereo not given)
  EC50: > 200 µM
  IC50: 29.5 µM

## O=C(O)c1nc(Cl)c(Cl)[nH]c1=O
  EC50: > 200 µM
  IC50: 55 µM

## CN1c2ccccc2C(=O)NC12CCN(CCCC(=O)c1ccc(F)cc1)CC2
  EC50: > 200 µM
  IC50: > 100 µM

## COc1ccc(-c2coc3cc(OC)cc(O)c3c2=O)cc1
  EC50: > 200 µM
  IC50: > 200 µM

## C[C@]12CCC3c4ccc(OC(=O)c5ccccc5)cc4CC[C@H]3C1CC[C@@H]2OC(=O)C12OC1CCC2=O (stereo not given in full)
  EC50: > 200 µM
  IC50: 4.07 µM

## N#Cc1[nH]c(=S)[nH]c1N
  EC50: > 200 µM
  IC50: 117 µM

## Cc1cc(Br)ccc1NC1=CC(=O)C(=O)c2ccccc21
  EC50: > 2.19 µM
  IC50: > 2.19 µM

## COc1ccccc1NC(=O)/C(=C\N1C(=O)CC(=O)NC1=S)C(C)=O
  EC50: > 200 µM
  IC50: > 200 µM

## C/C=C/C(C#N)O[Si](C)(C)C (stereo not given)
  outcome: inactive

## CCOC(=O)c1c(NC(=O)CCC(=O)Nc2sc(C)c(C)c2C(=O)OCC)sc(C)c1C
  EC50: > 100 µM
  IC50: > 100 µM

## O=C1OC(CC(=O)c2ccc(Cl)c(Cl)c2)C(Cl)=C1Cl (stereo not given)
  EC50: > 75.9 µM
  IC50: > 75.9 µM

## COC(=O)c1cc(=O)n2c(sc3ccccc32)c1C(=O)c1ccccc1
  EC50: > 10 µM
  IC50: > 10 µM

## COc1ccc2c(c1)C(c1ccc3ccccc3c1)OC2=O (stereo not given)
  EC50: > 46.8 µM
  IC50: 7.41 µM

## C[N+](C)(C)C1(C(=O)[O-])CC1
  EC50: > 200 µM
  IC50: > 200 µM

## OC(C1CCCC1=N/N=C1/CCCC1C(O)(C(F)(F)Cl)C(F)(F)Cl)(C(F)(F)Cl)C(F)(F)Cl (stereo not given)
  EC50: > 50.1 µM
  IC50: > 50.1 µM

## S=c1[nH][nH]c(=S)c2[nH]cnc12
  EC50: > 141 µM
  IC50: > 141 µM

## C=Cc1ccccc1N=NC(C(=O)OC)=P(c1ccccc1)(c1ccccc1)c1ccccc1
  EC50: > 1.17 µM
  IC50: > 1.17 µM

## CCOC(=O)C1C(=S)NC(=O)C1C#N (stereo not given)
  outcome: inactive

## O=c1nc(-c2ccccc2)c2c3c(cccn13)CCC2
  outcome: inactive

## O=C(c1ccccc1)N1C(=S)N(c2ccccn2)C(=Nc2ccccc2)C1=Nc1ccccc1
  EC50: > 200 µM
  IC50: 8.71 µM

## CC(C)NC(=O)NCCc1c[nH]c2ccccc12
  EC50: > 200 µM
  IC50: > 200 µM

## O=C(c1ccccc1[N+](=O)[O-])C(Br)C(Br)c1ccc(Cl)c(Cl)c1 (stereo not given)
  EC50: > 20 µM
  IC50: 1 µM

## CCc1ccc(Cc2ccc(CC)c(NC(=O)C(=O)C3NC(=S)NC3=O)c2CC)c(CC)c1NC(=O)C(=O)C1NC(=S)NC1=O (stereo not given)
  EC50: > 15.1 µM
  IC50: > 15.1 µM

## Cc1c(C(=O)Nc2ccccc2)nnn1-c1ccnc2cc(C(F)(F)F)ccc12
  EC50: > 200 µM
  IC50: > 200 µM

## CCOC(=O)CC(SP1(=S)OCC2(CC=CCC2)CO1)C(=O)OCC (stereo not given)
  EC50: > 200 µM
  IC50: 93.3 µM

## O=C(NCCO)c1ccc[c]([Sb](=[O])([OH])[OH])c1
  EC50: 23.4 µM
  IC50: 398 µM

## O=C1c2ccccc2C(=O)c2c1ccc1c3ccccc3n(-c3ccccc3)c21
  EC50: > 50.1 µM
  IC50: 0.871 µM

## CN(C(=O)Cc1ccccc1)n1cn[n+](CC(=O)OC(C)(C)C)c1
  EC50: > 200 µM
  IC50: > 200 µM

## O=C(NC12CC3CCC1CC(C3)C2)[C@@H]1CCCN1C(=O)OCc1ccccc1 (stereo not given in full)
  outcome: inactive

## CCOC(=O)C(C)c1nc2cc(N3CCOCC3)c(F)cc2[nH]c1=O (stereo not given)
  EC50: > 200 µM
  IC50: > 200 µM

## O=[N+]([O-])c1ccc(Sc2ccc([N+](=O)[O-])cc2)cc1
  outcome: inactive

## CCOC(=O)C12OC(CCC1=O)C(C(=O)OC)=C2C(=O)OC (stereo not given)
  EC50: > 200 µM
  IC50: > 200 µM

## CCCCCCCCCCCCCCCCN1C(=O)/C(=C\c2ccc(O)cc2)SC1=Nc1ccccc1
  EC50: > 44.7 µM
  IC50: > 44.7 µM
